Measured values: patent EP4624465A1, “COMPOUND SERVING AS DDR1 KINASE INHIBITOR, AND MEDICINE” (Nippon Shinyaku Co., Ltd., priority 2022, dated 2024)
pIC50: −log10 of the molar value. Where a name gives a salt, the structure may show the parent alone.

Legend:
DDR1 kinase [1] = biological target: T1, DDR1 kinase (Homo sapiens, UniProt Q08345); experiment: Evaluation of DDR1 kinase inhibition in DDR1-expressing U2OS cells (type I collagen stimulation, PathHunter detection); format: cell-based; set-up: host or cells: U2OS; conditions: type I collagen 50 µg/mL stimulation, duplicate, read-out: DDR-1 IC50
Target sequence in this assay (Q08345 19-913): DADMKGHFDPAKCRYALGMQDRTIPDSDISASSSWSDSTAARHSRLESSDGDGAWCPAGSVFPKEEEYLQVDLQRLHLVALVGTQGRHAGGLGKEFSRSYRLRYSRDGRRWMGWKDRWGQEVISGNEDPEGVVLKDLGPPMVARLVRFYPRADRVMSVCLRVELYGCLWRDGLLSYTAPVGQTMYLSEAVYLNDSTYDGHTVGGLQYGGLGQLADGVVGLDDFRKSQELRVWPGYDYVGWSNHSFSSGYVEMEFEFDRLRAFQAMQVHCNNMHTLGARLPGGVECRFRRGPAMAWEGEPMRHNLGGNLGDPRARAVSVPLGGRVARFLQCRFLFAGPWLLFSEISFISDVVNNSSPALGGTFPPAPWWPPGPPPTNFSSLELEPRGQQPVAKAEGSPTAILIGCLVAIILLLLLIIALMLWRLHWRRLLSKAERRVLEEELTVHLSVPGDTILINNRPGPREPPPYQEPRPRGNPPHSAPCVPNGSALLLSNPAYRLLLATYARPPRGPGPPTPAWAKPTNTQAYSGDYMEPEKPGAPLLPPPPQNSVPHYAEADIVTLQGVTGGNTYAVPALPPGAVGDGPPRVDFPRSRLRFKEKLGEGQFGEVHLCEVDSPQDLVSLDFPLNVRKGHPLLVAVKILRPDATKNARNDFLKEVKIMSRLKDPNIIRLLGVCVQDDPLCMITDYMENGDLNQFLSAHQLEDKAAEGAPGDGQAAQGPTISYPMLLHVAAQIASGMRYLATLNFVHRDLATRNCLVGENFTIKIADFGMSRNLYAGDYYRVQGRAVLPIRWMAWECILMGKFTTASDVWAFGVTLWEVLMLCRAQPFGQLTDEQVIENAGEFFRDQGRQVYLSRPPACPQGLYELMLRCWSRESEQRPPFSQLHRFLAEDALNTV

DDR1 kinase [2] = biological target: T1, DDR1 kinase; experiment: Evaluation of DDR1 kinase inhibition (LANCE Ultra TR-FRET kinase assay); format: biochemical; set-up: purchased Carna Biosciences 08-113; conditions: DDR1 protein 0.5 nM, LANCE Ultra ULight-poly GAT substrate, 2 hours at room temperature, duplicate; read-out: DDR-1 IC50
Target sequence in this assay (Q08345 19-876 isoform Q08345-2 limits assumed): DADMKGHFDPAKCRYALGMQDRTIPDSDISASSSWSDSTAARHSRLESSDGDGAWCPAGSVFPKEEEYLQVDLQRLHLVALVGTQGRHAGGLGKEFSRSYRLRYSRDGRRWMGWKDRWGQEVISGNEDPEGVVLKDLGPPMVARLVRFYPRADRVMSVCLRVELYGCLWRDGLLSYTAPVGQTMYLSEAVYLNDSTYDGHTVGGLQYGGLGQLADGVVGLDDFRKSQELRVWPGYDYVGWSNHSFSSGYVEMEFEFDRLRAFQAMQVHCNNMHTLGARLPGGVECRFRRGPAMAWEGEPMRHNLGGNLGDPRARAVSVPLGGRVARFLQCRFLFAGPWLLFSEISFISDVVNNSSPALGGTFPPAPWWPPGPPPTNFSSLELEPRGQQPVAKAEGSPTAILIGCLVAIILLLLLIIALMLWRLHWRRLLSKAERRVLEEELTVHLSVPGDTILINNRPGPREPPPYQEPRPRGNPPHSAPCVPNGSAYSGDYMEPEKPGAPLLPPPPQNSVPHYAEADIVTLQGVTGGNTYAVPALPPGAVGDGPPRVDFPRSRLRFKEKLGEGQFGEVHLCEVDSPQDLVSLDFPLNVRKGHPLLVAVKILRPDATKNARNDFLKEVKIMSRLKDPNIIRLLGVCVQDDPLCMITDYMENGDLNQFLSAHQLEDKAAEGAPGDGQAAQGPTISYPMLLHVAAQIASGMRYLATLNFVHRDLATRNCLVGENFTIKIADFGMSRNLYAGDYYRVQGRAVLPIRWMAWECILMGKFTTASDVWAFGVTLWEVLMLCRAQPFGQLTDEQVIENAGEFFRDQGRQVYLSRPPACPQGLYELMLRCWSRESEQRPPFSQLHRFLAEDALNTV

Row | SMILES | pIC50 (DDR1 kinase [1]) | pIC50 (DDR1 kinase [2])
1 | O=C(c1ccnc(NC2CCC(F)(F)CC2)c1)N1CC(c2nn(CC(=O)N3CCC[C@H]3C(F)(F)F)c3cc(F)cc(F)c23)C1 [Compound E-75, 2-[3-(1-{2-[(4,4-difluorocyclohexyl)aminolpyridine-4-carbonyl}azetidin-3-yl)-4,6-difluoro-1H-indazol-1-yl]-1-[(2S)-2-(trifluoromethyl)pyrrolidin-1-yl]ethan-1-one hydrochloride] | 7.48 | 7.82
2 | O=C(Cn1nc(C2CN(C(=O)c3ccnc(NC4CCC4)c3)C2)c2c(F)cccc21)NCC(F)(F)F [Compound E-68, 2-(3-{1-[2-(cyclobutylamino)pyridine-4-carbonyl]azetidin-3-yl}-4-fluoro-1H-indazol-1-yl)-N-(2,2,2-trifluoroethyl)acetamide hydrochloride] | 8.10 | 8.42
3 | O=C(c1ccnc(NC2CCOCC2)c1)N1CC(c2nn(CC(=O)N3CCC[C@H]3C(F)(F)F)c3cc(F)cc(F)c23)C1 [Compound E-88, 2-[4,6-difluoro-3-(1-{2-[(oxan-4-yl)amino]pyridine-4-carbonyl}azetidin-3-yl)-1H-indazol-1-yl]-1-[(2S)-2-(trifluoromethyl)pyrrolidin-1-yl]ethan-1-one] | 5.85 | 7.68
4 | Nc1cc(C(=O)N2CC(c3nn(CC(=O)N4CCC[C@H]4C(F)F)c4ccccc34)C2)c(F)cn1 [Compound E-272, 2-{3-[1-(2-amino-5-fluoropyridine-4-carbonyl)azetidin-3-yl]-1H-indazol-1-yl}-1-[(2S)-2-(difluoromethyl)pyrrolidin-1-yl]ethan-1-one] | 8.52 | 8.85
5 | Nc1cc(C(=O)N2CC(c3nn(CC(=O)N4CCC[C@H]4C(F)(F)F)c4ccccc34)C2)ccn1 [Compound E-40, 2-{3-[1-(2-aminopyridine-4-carbonyl)azetidin-3-yl]-1H-indazol-1-yl}-1-[(2S)-2-(trifluoromethyl)pyrrolidin-1-yl]ethan-1-one] | 7.16 | 8.24
6 | CN(CC(F)(F)F)C(=O)Cn1nc(C2CN(C(=O)c3cc(N)ncc3F)C2)c2c(F)cccc21 [Compound E-59, 2-{3-[1-(2-amino-5-fluoropyridine-4-carbonyl)azetidin-3-yl]-4-fluoro-1H-indazol-1-yl}-N-methyl-N-(2,2,2-trifluoroethyl)acetamide] | 6.77 | 8.27
7 | CN(CC(F)F)C(=O)Cn1nc(C2CN(C(=O)c3cc(N)ncc3F)C2)c2ccccc21 [Compound E-269, 2-{3-[1-(2-amino-5-fluoropyridine-4-carbonyl)azetidin-3-yl]-1H-indazol-1-yl}-N-(2,2-difluoroethyl)-N-methylacetamide] | 7.42 | 8.32
8 | Nc1cc(C(=O)N2CC(c3nn(CC(=O)N4CCC(F)(F)CC4)c4ccccc34)C2)c(F)cn1 [Compound E-257, 2-{3-[1-(2-amino-5-fluoropyridine-4-carbonyl)azetidin-3-yl]-1H-indazol-1-yl}-1-(4,4-difluoropiperidin-1-yl)ethan-1-one] | 7.38 | 7.89
9 | Nc1cc(C(=O)N2CC(c3nn(Cc4nc(C(F)(F)F)no4)c4cccc(F)c34)C2)ccn1 [Compound E-115, 4-[3-(4-fluoro-1-{[3-(trifluoromethyn-1,2,4-oxadiazol-5-yl]methyl}-1H-indazol-3-yl)azetidine-1-carbonyl]pyridin-2-amine hydrochloride] | 6.60 | 8.07
10 | Cc1ccc2c(n1)c(C1CN(C(=O)c3cc(N)ncc3F)C1)nn2CC(=O)N1CCOCC1(C)C [Compound E-186, 2-{3-[1-(2-amino-5-fluoropyridine-4-carbonyl)azetidin-3-yl]-5-methyl-1H-pyrazolo[4,3-b]pyridin-1-yl}-1-(3,3-dimethylmorpholin-4-yl)ethan-1-one p-toluenesulfonate] | 6.16 | 7.64
11 | Nc1cc(C(=O)N2CC(c3nn(CC(=O)NCC(F)(F)F)c4ccc(F)c(Br)c34)C2)ccn1 [Compound E-70, 2-{3-[1-(2-aminopyridine-4-carbonyl)azetidin-3-yl]-4-bromo-5-fluoro-1H-indazol-1-yl}-N-(2,2,2-trifluoroethyl)acetamide hydrochloride] | 6.92 | 8.77
12 | Nc1cc(C(=O)N2CC=C(c3cn(CC(=O)N4CCC[C@H]4C(F)(F)F)c4cccc(F)c34)CC2)ccn1 [Compound E-124] | 6.85 | 8.66
13 | Nc1cc(C(=O)N2CC(c3nn(CC(=O)NC4CCCC4(F)F)c4ccccc34)C2)ccn1 (stereo not drawn) [Compound E-225, 2-{3-[1-(2-aminopyridine-4-carbonyl)azetidin-3-yl}-1H-indazol-1-yl}-N-(2,2-difluorocyclopentyl)acetamide] | 6.35 | 7.77
14 | Nc1nccc(C(=O)N2CC(c3nn(CC(=O)N4CCC[C@H]4C(F)(F)F)c4cc(F)cc(F)c34)C2)n1 [Compound E-129, 2-{3-[1-(2-aminopyrimidine-4-carbonyl)azetidin-3-yl}-4,6-difluoro-1H-indazol-1-yl}-1-[(2S)-2-(trifluoromethyl)pyrrolidin-1-yl]ethan-1-one] | 7.15 | 8.20
15 | CN(CC(F)(F)F)C(=O)Cn1nc(C2CN(C(=O)c3nc(N)ncc3F)C2)c2ccccc21 [Compound E-276, 2-{3-[1-(2-amino-5-fluoropyrimidine-4-carbonyl)azetidin-3-yl)-1H-indazol-1-yl}-N-methyl-N-(2,2,2-trifluoroethyl)acetamide] | 6.37 | 7.72
16 | CCNc1cc(C(=O)N2CC(c3nn(CC(=O)NCC(F)(F)F)c4cccc(Cl)c34)C2)ccn1 [Compound E-64, 2-(4-chloro-3-(1-[2-(ethylamino)pyridine-4-carbonyl]azetidin-3-yl}-1H-indazol-1-yl)-N-(2,2,2-trifluoroethyl)acetamide hydrochloride] | 6.74 | 7.21
17 | Nc1cc(C(=O)N2CCC(c3nn(CC(=O)N4CCC[C@H]4C(F)(F)F)c4cccc(F)c34)CC2)ccn1 [Compound E-81, 2-{3-[1-(2-aminopyridine-4-carbonyl)piperidin-4-yl]-4-fluoro-1H-indazol-1-yl}-1-[(28)-2-(trifluoromethyl)pyrrolidin-1-yl]ethan-1-one] | 7.21 | 8.82
18 | Nc1cc(C(=O)N2CC(c3nn(CC(=O)NC4CC4(F)F)c4ccccc34)C2)c(F)cn1 (stereo not drawn) [Compound E-248, 2-{3-[1-(2-amino-5-fluoropyridine-4-carbonyl)azetidin-3-yl]-1H-indazol-1-yl}-N-(2,2-difluorocyclopropyl)acetamide] | 6.29 | 7.96
19 | Nc1cc(C(=O)N2CC(c3nn(CC(=O)N4CCO[C@H](C(F)(F)F)C4)c4cc(F)cc(F)c34)C2)ccn1 [Compound E-82, 2-{3-[1-(2-aminopyridine-4-carbonyl)azetidin-3-yl]-4,6-difluoro-1H-indazol-1-yl}-1-[(2S)-2-(trifluoromethyl)morpholin-4-yl]ethan-1-one] | 6.89 | 9.10
20 | CN(CC(F)(F)F)C(=O)Cn1nc(C2CN(C(=O)c3ccnc(N)c3)C2)c2c(F)cccc21 [Compound E-87, 2-{3-[1-(2-aminopyridine-4-carbonyl)azetidin-3-yl]-4-fluoro-1H-indazol-1-yl}-N-methyl-N-(2,2,2-trifluoroethyl)acetamide] | 7.03 | 7.66
21 | Nc1nccc(C(=O)N2CC(c3nn(CC(=O)N4CCC[C@H]4C(F)(F)F)c4ccccc34)C2)c1F [Compound E-196, 2-{3-[1-(2-amino-3-fluoropyridine-4-carbonyl)azetidin-3-yl]-1H-indazol-1-yl}-1-[(28)-2-(trifluoromethyl)pyrrolidin-1-yl]ethan-1-one] | 7.37 | 8.55
22 | Cc1nc(NC2CC2)sc1C(=O)N1CC(c2nn(CC(=O)N3CCC[C@H]3C(F)(F)F)c3cc(F)cc(F)c23)C1 [Compound E-99, 2-(3-{1-[2-(cyclopropylamino)-4-methyl-1,3-thiazole-5-carbonyl]azetidin-3-yl}-4,6-difluoro-1H-indazol-1-y1)-1-[(2S)-2-(trifluoromethyl)pyrrolidin-1-yl]ethan-1-one] | 6.82 | 7.40
23 | Cc1cnc(N)cc1C(=O)N1CC(c2nn(CC(=O)N3CCC[C@H]3C(F)(F)F)c3cc(F)cc(F)c23)C1 [Compound E-78, 2-{3-[1-(2-amino-5-methylpyridine-4-carbonyl)azetidin-3-yl]-4,6-difluoro-1H-indazol-1-yl}-1-[(2S)-2-(trifluoromethyl)pyrrolidin-1-yl]ethan-1-one hydrochloride] | 6.42 | 7.89
24 | Nc1cc(C(=O)N2CC(c3nn(CC(=O)NCC(F)(F)F)c4ccccc34)C2)ccn1 [Compound E-211, 2-{3-[1-(2-aminopyridine-4-carbonyl)azetidin-3-yl]-1H-indazol-1-yl}-N-(2,2,2-trifluoroethyl)acetamide] | 6.54 | 7.57
25 | Nc1cc(C(=O)N2CC(c3nn(Cc4cccc(C(F)(F)F)c4)c4cccc(F)c34)C2)ccn1 [Compound E-113, 4-[3-(4-fluoro-1-{[3-(trifluoromethyl)phenyllmethyl}-1H-indazol-3-yl)azetidine-1-carbonyl]pyridin-2-amine hydrochloride] | 6.33 | 7.60
26 | CN(CC(F)(F)F)C(=O)Cn1nc(C2CN(C(=O)c3cc(N)ncc3F)C2)c2ccccc21 [Compound E-240, 2-{3-[1-(2-amino-5-fluoropyridine-4-carbonyl)azetidin-3-yl}-1H-indazol-1-yl}-N-methyl-N-(2,2,2-trifluoroethyl)acetamide] | 6.85 | 8.30
27 | O=C(c1cnn2ccsc12)N1CC(c2nn(CC(=O)N3CCC[C@H]3C(F)(F)F)c3cc(F)cc(F)c23)C1 [Compound E-102] | 5.48 | 7.89
